Experimental data published in paper PMC9065678, “BI 1015550 is a PDE4B Inhibitor and a Clinical Drug Candidate for the Oral Treatment of Idiopathic Pulmonary Fibrosis” (Frontiers in Pharmacology, 2022).
pIC50: −log10 of the molar value.

Experiments:
IPF-LF cells = test: bFGF plus IL-1β-induced proliferation of IPF lung fibroblasts (bromodeoxyuridine assay); format: cell-based; conditions: Homo sapiens, Fibroblast, read-out: Inhibition of proliferation
Protocol: (§1) Fibroblasts from donors with IPF (IPF-LF) (Asterand, Detroit, MI, United States) were grown in fibroblast basal medium (CC-3131, Lonza Walkersville, Inc., Walkersville, MD, United States) supplemented with FGM-2 SingleQuot Kit Supplements and Growth Factors (CC-4126, Lonza). Cells were grown in a humidified incubator at 37°C and 5% CO2. All assays were performed at passage 7 or 8. For assay set-up, cells were seeded in fibroblast growth medium plus supplements in assay-relevant densities. For TGF-β-stimulated assays, cells were seeded at 4,500 cells per well in 96-well plates. Proliferation assays were performed in 96-well plates at an initial seeding cell density on day 0 of 2,000 cells per well. After 24-h, the cell culture medium was changed to starvation medium (fibroblast basal medium without supplements). After a 24-h starvation period, cells were pre-incubated for 30 min with different concentrations of BI 1015550 plus/minus different concentrations of nintedanib and/or 1 nmol/L PGE2 and stimulated with the assay-relevant stimulus for the indicated time in the presence of the compound.
IPF-LF cells were stimulated with bFGF (20 ng/mL) plus IL-1β (30 pg/mL). After 72 h of stimulation, 10-times concentrated bromodeoxyuridine was added and the cells were incubated for another 18 h (final concentration bromodeoxyuridine 10 μmol/L). Cell proliferation was assessed by bromodeoxyuridine assay (Roche, Mannheim, Germany) according to the instruction manual.

α-SMA protein expression = α-SMA protein expression of TGF-β-stimulated IPF lung fibroblasts (Western blot replacement assay); format: cell-based, human; conditions: alone, up to the highest concentration of 100 nmol/L
Protocol: as §1
For determination of α-SMA protein expression, IPF-LF cells were stimulated with TGF-β (4 ng/mL) for 48 h. Lysates were assayed in a Western blot replacement assay (MSD). In short, lysates were pipetted onto high binding plates (MSD) and were sequentially incubated with a mouse anti-human α-SMA antibody (Sigma Aldrich) and an anti-mouse sulfo-tag antibody (MSD). For analysis, an MSD sector imager was used.

Suncus murinus = test: Determination of emesis in male Suncus murinus; format: in vivo
Protocol: All animals (50–55 g) were dosed orally by gavage immediately before transfer to whole-body plethysmography boxes. The volume of application was set to 10 mL/kg body weight. For assessment of the emetic events, animals were placed in the whole-body plethysmography boxes without any access to feed or water for 3 h. The whole-body plethysmography system used to detect emetic events consisted of five major components: 1) plethysmography boxes for mice (Buxco®, PLY 3211-F, Data Sciences International, New Brighton, MN, United States), 2) a pressure transducer with an amplifier, 3) a bias flow regulator, 4) a PC-based system to receive and process the amplified signals, and 5) a PC-based data acquisition system (NOTOCORD-hem™, Instem, Stone, United Kingdom) to process signals, as well as in-house-developed software to detect and identify changes in breathing pattern. Retching and vomiting induced characteristic changes in the breathing pattern of animals and these were recorded by whole-body plethysmography and translated for NOTOCORD recording. A number of preset definitions (computer-based criteria) characteristic for emetic events were determined. Peaks that met the set internal computer-based criteria and exceeded the threshold of more than 600 mV were labeled as emetic events by the system on a standard basis.

[1] = test system: LPS-induced neutrophil influx into the BALF; test: LPS-induced neutrophil influx into the BALF of Suncus murinus; format: in vivo; conditions: Neutrophil, oral, 30 min before nebulized LPS, read-out: ED50 LPS-induced BALF neutrophils
Text: (§2) Compared with other animal species used to study emesis induction by PDE4 inhibitors, like ferrets, dogs, minipigs, or monkeys, Suncus murinus allows the testing of a sufficient number of animals to provide a high statistical power. […] Male Suncus murinus (weight 50–55 g) from Boehringer Ingelheim (Biberach an der Riss, Germany) or male Wistar rats (200–250 g, Charles River), eight animals per group, were used. […] For this purpose, animals in the positive control and treatment groups were put into a circular Plexiglas chamber with 16 pie-like compartments for one animal each, and were consecutively exposed to nebulized LPS for 30 min. The LPS solution used for nebulization contained 1 mg/mL LPS in phosphate-buffered saline (PBS). Nebulization was performed with the commercially available PARI Master® nebulizer with a PARI Master® LL adapter (Pari GmbH, Starnberg, Germany). 4 h after LPS exposure, the animals were anesthetized and euthanized by cervical dislocation. After sacrifice, the trachea was cannulated and bronchoalveolar lavage was performed by instilling and re-aspirating two-times 1 mL (Suncus murinus) or 5 mL (rat) lavage buffer (PBS +2% bovine serum albumin). BALF volumes were recorded manually. Determination of neutrophil numbers in BALF was performed using a blood hemacytometer (Sysmex XT-1800i, Kobe, Japan).

[2] = test system: LPS-induced lung neutrophil influx; test: LPS-induced lung neutrophil influx in male Wistar rats; format: in vivo, rat; conditions: Rattus norvegicus, Neutrophil, oral, data not shown
Text: as §2

PDE4B = target: T1, PDE4B (Homo sapiens, UniProt Q07343); test: Recombinant PDE activity, scintillation proximity assay: PDE4B; format: biochemical; conditions: human recombinant active site fragment, substrate [3H]cAMP, means from n independent experiments; read-out: IC50 PDE4B2
T1 construct: PDE4B NG_029038: AA 152–484; made in house; host or cells: SF9 insect cells (baculovirus, Bac-To-Bac, pFastbac)
Protocol: (§3) For the preparation of human recombinant PDEs of interest, the Bac-To-Bac baculoviral expression system from Invitrogen (Carlsbad, CA, United States) was used according to the instruction manual. […] The plasmids were transformed into DH10Bac bacteria, SF9 insect cells were transfected with the bacmid DNA, and the resulting baculoviruses were stored and used for further rounds of infections. For protein production, SF9 cells were infected until a cytopathic effect was visible (after about 72 h), the SF9 cells were harvested and broken up by 3 freeze/thaw cycles, and by shearing 10 times through a 0.1 mm cannula using a syringe. […] The Phosphodiesterase Scintillation Proximity Assays (TRKQ7090 for [^3H]cAMP, GE Healthcare Europe GmbH, Chalfont St Giles, United Kingdom, and TRKQ7100 for [^3H]cGMP, Perkin Elmer, Waltham, MA, United States) were performed essentially according to the instruction manual. […] Assay solutions containing recombinant baculoviral-expressed PDE (to give an activity of 5.000–20.000 cpm corresponding to 5–20% of total activity added), 50 mmol/L Tris/HCl pH 7.5, 8.3 mmol/L MgCl2, 1.7 mmol/L EGTA, and 10 µL radiolabeled substrate (0.05 µCi in H2O) were incubated for 1 h at 30°C (final volume 100 μL).

PDE4D = target: T2, PDE4D (Homo sapiens, UniProt Q08499); test: Recombinant PDE activity, scintillation proximity assay: PDE4D; format: biochemical; conditions: human recombinant active site fragment, substrate [3H]cAMP, means from n independent experiments; read-out: IC50 PDE4D2
T2 construct: PDE4D NG_027957, AA 79–438; made in house; host or cells: SF9 insect cells (baculovirus, Bac-To-Bac, pFastbac)
Protocol: as §3

PDE4A = target: T3, PDE4A (Homo sapiens, UniProt P27815); test: Recombinant PDE activity, scintillation proximity assay: PDE4A; format: biochemical; conditions: substrate [3H]cAMP, means from n independent experiments
T3 construct: PDE4A (NG_029594, AA 156–886); made in house; host or cells: SF9 insect cells (baculovirus, Bac-To-Bac, pFastbac)
Protocol: as §3

PDE4C = target: T4, PDE4C (Homo sapiens, UniProt Q08493); test: Recombinant PDE activity, scintillation proximity assay: PDE4C; format: biochemical; conditions: substrate [3H]cAMP, means from n independent experiments, read-out: IC50 PDE4C2
T4 construct: made in house; host or cells: SF9 insect cells (baculovirus, Bac-To-Bac, pFastbac)
Protocol: as §3

T2 sequence (Q08499 381-740): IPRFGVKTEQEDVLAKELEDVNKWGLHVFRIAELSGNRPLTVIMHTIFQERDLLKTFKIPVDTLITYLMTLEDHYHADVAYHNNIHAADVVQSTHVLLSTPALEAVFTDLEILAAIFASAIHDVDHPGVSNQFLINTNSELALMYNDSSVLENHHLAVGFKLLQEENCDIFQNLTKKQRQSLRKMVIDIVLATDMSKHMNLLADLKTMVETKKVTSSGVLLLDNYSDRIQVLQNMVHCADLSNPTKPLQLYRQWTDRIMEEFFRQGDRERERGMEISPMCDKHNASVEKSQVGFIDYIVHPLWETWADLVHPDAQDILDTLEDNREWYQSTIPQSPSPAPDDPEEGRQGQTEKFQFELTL
T1 sequence (Q07343 324-656): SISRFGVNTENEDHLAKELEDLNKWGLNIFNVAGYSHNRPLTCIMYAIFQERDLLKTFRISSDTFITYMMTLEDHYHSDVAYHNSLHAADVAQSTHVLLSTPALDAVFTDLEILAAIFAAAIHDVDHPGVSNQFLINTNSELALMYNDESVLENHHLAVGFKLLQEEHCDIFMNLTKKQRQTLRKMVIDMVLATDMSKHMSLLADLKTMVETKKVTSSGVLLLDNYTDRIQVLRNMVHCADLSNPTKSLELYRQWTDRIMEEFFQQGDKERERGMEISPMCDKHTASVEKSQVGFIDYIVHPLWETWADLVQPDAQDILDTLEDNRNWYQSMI
T3 sequence (P27815 156-886): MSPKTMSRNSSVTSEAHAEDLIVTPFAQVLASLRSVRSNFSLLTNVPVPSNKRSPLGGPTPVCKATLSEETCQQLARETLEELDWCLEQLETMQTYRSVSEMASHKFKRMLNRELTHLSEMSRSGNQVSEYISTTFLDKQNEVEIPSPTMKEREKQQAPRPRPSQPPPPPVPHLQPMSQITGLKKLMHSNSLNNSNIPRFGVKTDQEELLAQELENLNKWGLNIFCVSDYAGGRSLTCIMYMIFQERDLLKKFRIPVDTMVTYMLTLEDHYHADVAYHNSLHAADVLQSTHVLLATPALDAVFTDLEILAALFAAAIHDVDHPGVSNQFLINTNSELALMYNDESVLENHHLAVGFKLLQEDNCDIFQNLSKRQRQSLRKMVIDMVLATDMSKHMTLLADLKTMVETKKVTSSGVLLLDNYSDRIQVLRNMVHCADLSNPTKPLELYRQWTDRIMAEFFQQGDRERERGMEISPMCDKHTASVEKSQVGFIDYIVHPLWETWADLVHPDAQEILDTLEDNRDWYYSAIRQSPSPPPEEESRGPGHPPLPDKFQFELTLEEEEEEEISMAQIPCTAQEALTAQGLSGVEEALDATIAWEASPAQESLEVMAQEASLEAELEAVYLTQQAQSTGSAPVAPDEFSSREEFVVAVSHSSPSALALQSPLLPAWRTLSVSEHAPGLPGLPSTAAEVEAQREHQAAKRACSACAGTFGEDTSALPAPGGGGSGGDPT
T4 sequence (Q08493 107-712): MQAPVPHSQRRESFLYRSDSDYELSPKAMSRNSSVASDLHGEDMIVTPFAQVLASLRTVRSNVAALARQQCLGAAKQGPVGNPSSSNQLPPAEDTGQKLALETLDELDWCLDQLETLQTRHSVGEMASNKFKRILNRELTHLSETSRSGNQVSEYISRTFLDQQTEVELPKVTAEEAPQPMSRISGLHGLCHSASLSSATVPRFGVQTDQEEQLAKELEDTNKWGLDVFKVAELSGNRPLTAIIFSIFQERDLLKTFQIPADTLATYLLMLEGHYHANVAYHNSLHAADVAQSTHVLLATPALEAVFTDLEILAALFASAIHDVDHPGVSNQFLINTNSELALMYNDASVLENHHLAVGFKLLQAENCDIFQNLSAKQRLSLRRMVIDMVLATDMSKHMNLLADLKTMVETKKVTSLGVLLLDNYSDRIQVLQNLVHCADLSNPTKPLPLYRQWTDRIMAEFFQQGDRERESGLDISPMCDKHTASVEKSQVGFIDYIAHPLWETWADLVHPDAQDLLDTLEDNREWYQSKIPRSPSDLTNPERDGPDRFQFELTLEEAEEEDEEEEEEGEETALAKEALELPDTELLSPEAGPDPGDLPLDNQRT

`COC(=O)c1ccc2c(c1)NC(=O)/C2=C(\Nc1ccc(N(C)C(=O)CN2CCN(C)CC2)cc1)c1ccccc1` [Nintedanib, nintedanib, reference compound] was tested, and the inhibition at 0.1 µM (IPF-LF cells) was 15% and the “Inhibitory effect on α-SMA protein expression” value (α-SMA protein expression) was “no inhibitory effect”.

With `O=C(Nc1c(Cl)cncc1Cl)c1ccc(OC(F)F)c(OCC2CC2)c1` [Roflumilast, roflumilast, reference compound] the Animals showing emesis (Suncus murinus; 10 × ED50 oral (BI 1015550 6 mg/kg, roflumilast 10 mg/kg)) was 10/24, the “% of vomiting animals, emesis at 10 × ED50” value (Suncus murinus; oral (BI 1015550 6 mg/kg, roflumilast 10 mg/kg), 24 animals) was 42% and the ED50 [1] was 1 mg/kg. For the same molecule, the ED50 [2] was 1 mg/kg.

In the case of `O=C(Nc1c(Cl)c[n+]([O-])cc1Cl)c1ccc(OC(F)F)c(OCC2CC2)c1` [Roflu-N-Ox, roflumilast N-oxide, reference compound], the pIC50 (PDE4B) was 8.85, the pIC50 (PDE4D) was 8.85 and the pIC50 (PDE4A) was 8.55. It also gave a pIC50 (PDE4C) of 7.82.
